Laboratory results from patent EP4714952A1, “COMPOUND AND USE THEREOF” (Autobio Group Co., Ltd., priority 2023, dated 2025).
Where two headings read alike, the source gives them in different places.

Columns and labels:
PDE4B1 = target: T1, PDE4B1 (Homo sapiens, UniProt Q07343); assay: In vitro inhibitory effect on PDE4B1 enzyme (AMP-Glo assay); type: biochemical
T1 construct: purchased Sigma
Description: (§1) 1. Table 1 Main reagents and consumables for in vitro detection of inhibitory effect
(§2) 2. Preparation of experimental buffers Reaction buffer (5×): 50 mM Tris-HCl (buffer), 50 mM MgCl2, 0.5% BSA, 0.25% Tween-20, pH 7.4, stored at -20°C. 3. […] The starting concentration of the reference substance serial dilution was the Low control, and 1% DMSO-reaction buffer served as the High control. • 3) The enzyme was diluted to the desired concentration with 1× reaction buffer, and 4 µL of the diluted solution was transferred to the assay plate. After centrifugation, the 384-well low dead-volume microplate was sealed with sealing film and incubated in the incubator at 23°C for 15 minutes. • 4) The substrate cAMP was diluted to the desired concentration using 1× reaction buffer, and 5 µL of the diluted solution was transferred to the assay plate. After centrifugation, the plate was sealed again and incubated in the incubator at 23°C for 60 minutes (PDE3A) or 10 minutes (PDE4B1). • 5) Then, 5 µL of Reagent I from the AMP-Glo™ Assay Kit was added to the assay plate. After centrifugation and sealing, the plate was incubated in the incubator at 23°C for 60 minutes. • 6) The detection solution was prepared according to the AMP-Glo™ Assay Kit instructions, and 10 µL of the detection solution was added to the assay plate. After centrifugation and sealing, the plate was incubated in the incubator at 23°C for 60 minutes. • 7) The readout was recorded using a multimode microplate reader. 4. […] 5.

PDE3A = target: T2, PDE3A (Homo sapiens, UniProt Q14432); assay: In vitro inhibitory effect on PDE3A enzyme (AMP-Glo assay); type: biochemical
T2 construct: purchased BPS
T2 sequence (Q14432 whole entry): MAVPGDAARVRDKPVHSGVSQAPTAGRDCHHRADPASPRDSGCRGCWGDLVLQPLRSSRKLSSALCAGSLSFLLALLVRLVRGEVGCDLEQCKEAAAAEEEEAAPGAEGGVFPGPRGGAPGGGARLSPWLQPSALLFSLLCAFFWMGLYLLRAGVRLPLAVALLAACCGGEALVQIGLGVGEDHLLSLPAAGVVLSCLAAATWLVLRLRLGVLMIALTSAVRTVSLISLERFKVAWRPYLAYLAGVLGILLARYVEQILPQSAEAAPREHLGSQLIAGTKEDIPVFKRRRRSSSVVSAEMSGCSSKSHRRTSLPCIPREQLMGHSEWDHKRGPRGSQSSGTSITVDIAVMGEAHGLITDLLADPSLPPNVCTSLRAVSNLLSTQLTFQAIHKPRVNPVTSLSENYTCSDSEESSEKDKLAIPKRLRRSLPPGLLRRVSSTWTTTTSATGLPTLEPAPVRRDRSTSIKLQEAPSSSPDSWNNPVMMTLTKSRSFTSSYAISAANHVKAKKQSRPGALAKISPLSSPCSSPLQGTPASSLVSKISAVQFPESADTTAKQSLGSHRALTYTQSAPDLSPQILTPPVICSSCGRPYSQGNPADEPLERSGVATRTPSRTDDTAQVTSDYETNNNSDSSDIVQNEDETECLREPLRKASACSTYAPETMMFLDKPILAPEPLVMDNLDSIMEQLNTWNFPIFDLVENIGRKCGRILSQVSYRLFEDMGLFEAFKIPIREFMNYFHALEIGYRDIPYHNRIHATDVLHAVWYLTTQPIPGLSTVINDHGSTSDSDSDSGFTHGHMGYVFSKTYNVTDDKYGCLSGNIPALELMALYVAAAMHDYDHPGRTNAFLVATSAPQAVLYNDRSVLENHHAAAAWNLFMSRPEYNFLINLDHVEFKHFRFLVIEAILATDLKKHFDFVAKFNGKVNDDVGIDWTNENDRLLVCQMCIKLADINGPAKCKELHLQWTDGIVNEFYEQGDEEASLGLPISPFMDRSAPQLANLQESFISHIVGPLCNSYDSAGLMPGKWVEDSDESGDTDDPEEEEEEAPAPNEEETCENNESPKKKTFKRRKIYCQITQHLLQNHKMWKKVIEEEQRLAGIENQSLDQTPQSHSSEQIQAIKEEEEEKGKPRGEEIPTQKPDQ
Description: as §1, §2

CYP3A-M = CYP3A-M (Homo sapiens, UniProt P08684); assay: In vitro CYP inhibition in human liver microsomes, CYP3A-M
Sequence of CYP3A-M (P08684 2-503): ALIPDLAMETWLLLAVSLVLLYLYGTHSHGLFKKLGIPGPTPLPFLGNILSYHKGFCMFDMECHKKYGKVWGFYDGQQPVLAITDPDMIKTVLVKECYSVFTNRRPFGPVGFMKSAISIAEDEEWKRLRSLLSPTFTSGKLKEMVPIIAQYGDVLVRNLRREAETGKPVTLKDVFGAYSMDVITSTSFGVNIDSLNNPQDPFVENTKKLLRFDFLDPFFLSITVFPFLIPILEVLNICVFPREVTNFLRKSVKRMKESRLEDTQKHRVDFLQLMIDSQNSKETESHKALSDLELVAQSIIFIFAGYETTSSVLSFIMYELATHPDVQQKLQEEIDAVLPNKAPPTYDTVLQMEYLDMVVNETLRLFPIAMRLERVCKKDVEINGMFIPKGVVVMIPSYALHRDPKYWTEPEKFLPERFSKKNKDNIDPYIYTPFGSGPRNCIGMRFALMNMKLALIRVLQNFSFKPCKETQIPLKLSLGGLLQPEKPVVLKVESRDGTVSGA
Description: (§3) 1.1 Working solutions (100×) of sample compounds and standard inhibitors were prepared.
(§4) 1.2 Microsomes were removed from a -80°C refrigerator, thawed on ice, labeled with the date, and stored in the refrigerator immediately after use.
(§5) 1.3 20 µL of substrate solution was added to the corresponding wells, while 20 µL of PB (phosphate buffer) was added to the blank wells.
(§6) 1.4 2 µL of sample compound solution and positive control working solution were added to the appropriate wells, while 2 µL of solvent was added to inhibitor-free wells and blank wells.
(§7) 1.5 HLM (human liver microsome) working solution was prepared.
(§8) 1.6 158 µL of HLM working solution was added to all wells of the plate.
(§9) 1.7 The plate was pre-incubated in a 37°C water bath for approximately 10 minutes.
(§10) 1.8 NADPH (nicotinamide adenosine denucleotide hydro-phosphoric acid, i.e. reduced form coenzyme II) cofactor solution was prepared.
(§11) 1.9 20 µL of NADPH cofactor solution was added to all incubation wells.
(§12) 1.10 The solution was mixed and the plate was placed in 37°C water bath to incubate CYP for 10 minutes.
(§13) Concentration-inhibition percentage curves of the control compound and test compounds were plotted using XL Fit or SigmaPlot, followed by nonlinear regression analysis.
(§14) IC50 values were determined using a 3 or 4 parameter logistic equation.

CYP1A2 = CYP1A2 (Homo sapiens, UniProt P05177); assay: In vitro CYP inhibition in human liver microsomes, CYP1A2
Sequence of CYP1A2 (P05177 whole entry): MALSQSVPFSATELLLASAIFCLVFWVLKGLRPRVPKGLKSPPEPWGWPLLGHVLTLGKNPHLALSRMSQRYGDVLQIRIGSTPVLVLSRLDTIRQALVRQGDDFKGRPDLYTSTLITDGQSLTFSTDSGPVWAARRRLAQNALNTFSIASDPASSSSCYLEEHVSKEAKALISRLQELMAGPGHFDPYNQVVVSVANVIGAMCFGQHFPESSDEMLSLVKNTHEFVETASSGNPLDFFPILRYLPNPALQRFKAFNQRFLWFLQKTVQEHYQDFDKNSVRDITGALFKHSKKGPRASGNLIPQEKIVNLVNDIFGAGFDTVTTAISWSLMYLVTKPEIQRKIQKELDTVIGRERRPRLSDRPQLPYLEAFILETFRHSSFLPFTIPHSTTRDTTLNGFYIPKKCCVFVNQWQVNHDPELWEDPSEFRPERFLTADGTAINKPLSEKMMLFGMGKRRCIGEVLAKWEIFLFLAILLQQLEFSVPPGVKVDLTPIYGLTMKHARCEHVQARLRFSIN
Description: as §3, §4, §5, §6, §7, §8, §9, §10, §11, §12
(§15) 1.11 At designated time points, the reaction was terminated by adding 400 µL of cold stopping solution.
(§16) 1.13 200 µL of the supernatant was transferred into 100 µL of HPLC-grade water and vortexed for 10 minutes.
(§17) 1.14 Samples were subjected to LC/MS/MS analysis.
as §13, §14

CYP2C19 = CYP2C19 (Homo sapiens, UniProt P33261); assay: In vitro CYP inhibition in human liver microsomes, CYP2C19
Sequence of CYP2C19 (P33261 whole entry): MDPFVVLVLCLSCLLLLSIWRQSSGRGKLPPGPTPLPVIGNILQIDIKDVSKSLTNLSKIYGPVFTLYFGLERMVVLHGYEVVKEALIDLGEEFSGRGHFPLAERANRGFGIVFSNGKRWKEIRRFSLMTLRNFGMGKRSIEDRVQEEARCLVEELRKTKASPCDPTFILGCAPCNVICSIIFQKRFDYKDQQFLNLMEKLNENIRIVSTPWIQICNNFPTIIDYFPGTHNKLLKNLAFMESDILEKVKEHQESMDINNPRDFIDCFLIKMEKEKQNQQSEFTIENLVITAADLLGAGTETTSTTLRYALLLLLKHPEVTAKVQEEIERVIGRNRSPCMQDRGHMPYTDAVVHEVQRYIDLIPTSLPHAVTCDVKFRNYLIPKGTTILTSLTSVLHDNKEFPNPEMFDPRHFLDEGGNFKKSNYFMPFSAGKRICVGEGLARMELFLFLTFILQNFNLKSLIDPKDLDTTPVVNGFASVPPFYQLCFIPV
Description: as §3, §4, §5, §6, §7, §8, §9, §10, §11, §12, §15, §16, §17, §13, §14

CYP2D6 = CYP2D6 (Homo sapiens, UniProt P10635); assay: In vitro CYP inhibition in human liver microsomes, CYP2D6
Sequence of CYP2D6 (P10635 whole entry): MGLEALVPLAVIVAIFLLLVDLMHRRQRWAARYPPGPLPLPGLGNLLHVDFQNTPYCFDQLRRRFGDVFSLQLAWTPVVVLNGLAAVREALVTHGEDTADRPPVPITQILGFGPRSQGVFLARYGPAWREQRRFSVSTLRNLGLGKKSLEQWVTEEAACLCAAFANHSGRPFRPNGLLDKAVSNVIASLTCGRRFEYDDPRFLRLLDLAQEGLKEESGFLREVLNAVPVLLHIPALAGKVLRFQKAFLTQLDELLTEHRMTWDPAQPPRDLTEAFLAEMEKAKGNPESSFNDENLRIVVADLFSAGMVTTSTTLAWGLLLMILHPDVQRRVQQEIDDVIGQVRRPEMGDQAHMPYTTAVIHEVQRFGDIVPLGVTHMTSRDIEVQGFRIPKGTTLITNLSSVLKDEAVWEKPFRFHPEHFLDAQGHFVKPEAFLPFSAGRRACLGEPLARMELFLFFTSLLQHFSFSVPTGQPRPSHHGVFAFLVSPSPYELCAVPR
Description: as §3, §4, §5, §6, §7, §8, §9, §10, §11, §12, §15, §16, §17, §13, §14

CYP2C9 = CYP2C9 (Homo sapiens, UniProt P11712); assay: In vitro CYP inhibition in human liver microsomes, CYP2C9
Sequence of CYP2C9 (P11712 whole entry): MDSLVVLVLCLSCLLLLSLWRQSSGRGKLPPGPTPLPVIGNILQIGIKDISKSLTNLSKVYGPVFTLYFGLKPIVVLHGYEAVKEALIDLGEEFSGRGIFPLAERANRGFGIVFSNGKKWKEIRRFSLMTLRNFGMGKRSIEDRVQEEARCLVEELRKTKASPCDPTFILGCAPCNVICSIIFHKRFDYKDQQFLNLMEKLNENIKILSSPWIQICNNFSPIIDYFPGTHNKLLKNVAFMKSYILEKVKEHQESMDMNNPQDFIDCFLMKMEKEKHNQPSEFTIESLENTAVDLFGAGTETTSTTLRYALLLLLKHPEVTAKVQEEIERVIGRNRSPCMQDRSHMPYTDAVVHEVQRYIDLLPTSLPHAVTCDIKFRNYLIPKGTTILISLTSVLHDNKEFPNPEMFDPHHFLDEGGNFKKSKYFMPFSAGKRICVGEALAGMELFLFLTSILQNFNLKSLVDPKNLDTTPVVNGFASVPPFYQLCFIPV
Description: as §3, §4, §5, §6, §7, §8, §9, §10, §11, §12, §15, §16, §17, §13, §14

[1] = AMP-Glo Assay Kit, substrate cAMP, 23°C, 10 minutes, read-out: PDE4B1 (IC50)
[2] = AMP-Glo Assay Kit, substrate cAMP, 23°C, 60 minutes, read-out: PDE3A (IC50)

T1 sequence (Q07343 whole entry): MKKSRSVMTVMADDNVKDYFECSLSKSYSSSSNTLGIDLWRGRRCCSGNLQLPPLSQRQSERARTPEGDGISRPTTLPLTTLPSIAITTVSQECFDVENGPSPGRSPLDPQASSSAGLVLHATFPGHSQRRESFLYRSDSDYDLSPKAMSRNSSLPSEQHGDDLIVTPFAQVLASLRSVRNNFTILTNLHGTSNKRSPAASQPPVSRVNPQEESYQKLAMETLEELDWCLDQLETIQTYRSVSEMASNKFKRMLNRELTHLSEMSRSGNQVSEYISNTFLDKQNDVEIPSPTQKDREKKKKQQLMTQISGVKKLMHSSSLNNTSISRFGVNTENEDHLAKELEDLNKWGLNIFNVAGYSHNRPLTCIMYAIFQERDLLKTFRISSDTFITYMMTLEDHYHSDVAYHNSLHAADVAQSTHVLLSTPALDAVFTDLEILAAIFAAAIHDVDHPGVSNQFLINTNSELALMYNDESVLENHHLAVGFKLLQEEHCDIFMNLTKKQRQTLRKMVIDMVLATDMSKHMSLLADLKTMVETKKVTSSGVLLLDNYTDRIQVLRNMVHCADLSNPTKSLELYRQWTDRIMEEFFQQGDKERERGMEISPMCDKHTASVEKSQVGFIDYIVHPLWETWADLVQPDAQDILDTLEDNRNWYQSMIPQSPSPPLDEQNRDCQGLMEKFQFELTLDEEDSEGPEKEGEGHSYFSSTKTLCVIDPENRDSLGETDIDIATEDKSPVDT

IC50 (PDE4B1; [1]) [nM] | IC50 (PDE3A; [2]) [nM] | Structure (SMILES) | IC50 (PDE4B1) [nM] | IC50 (PDE3A) [nM] | also measured
1450 | 89.5 | COc1cc2c(cc1OC)-c1cc(N(c3c(C)cc(C)cc3C)C3CN(C(=O)c4ncon4)C3)nc(=O)n1CC2 [Compound 51] | – | – | –
– | – | CCOc1cc2c(cc1OC)-c1cc(=Nc3c(C)cc(C)cc3C)n(CCNC(=O)c3cccn(C)c3=O)c(=O)n1CC2 [Compound 52] | 0.89 | 0.37 | –
697 | 0.43 | CCOc1cc2c(cc1OC)-c1cc(=Nc3c(C)cc(C)cc3C)n(CCC(C)(C)O)c(=O)n1CC2 [Compound 54] | – | – | –
– | – | COc1cc2c(cc1OC)-c1cc(=Nc3c(C)cc(C)cc3C)n(CCNC(=O)c3cccn(CC(F)(F)F)c3=O)c(=O)n1CC2 [Compound 55] | 262 | 0.49 | –
8880 | 0.82 | COc1cc2c(cc1OC)-c1cc(N(c3c(C)cc(C)cc3C)C3CN(C(=O)c4nnc[nH]4)C3)nc(=O)n1CC2 [Compound 56] | – | – | –
– | – | CCOc1cc2c(cc1OC)-c1cc(=Nc3c(C)cc(C)cc3C)n(CCNC(=O)c3ccnn(C)c3=O)c(=O)n1CC2 [Compound 59] | 27.6 | 0.76 | –
– | – | CCOc1cc2c(cc1OC)-c1cc(N(CCCO)c3c(C)cc(C)cc3C)nc(=O)n1CC2 [Compound 60] | 6.3 | 0.0033 | IC50 at 10 min (CYP3A-M; microsomes): > 50 µM; IC50 (CYP1A2): > 50 µM; IC50 (CYP2C19): 42.1 µM; IC50 (CYP2D6): > 50 µM; IC50 (CYP2C9): 3.87 µM
– | – | CCOc1cc2c(cc1OC)-c1cc(N(CCC(=O)O)c3c(C)cc(C)cc3C)nc(=O)n1CC2 [Compound 61] | 11.1 | 0.0061 | IC50 at 10 min (CYP3A-M; microsomes): > 50 µM; IC50 (CYP1A2): > 50 µM; IC50 (CYP2C19): > 50 µM; IC50 (CYP2D6): > 50 µM; IC50 (CYP2C9): > 50 µM
2.6 | 0.055 | CCOc1cc2c(cc1OC)-c1cc(N(CCNC(=O)c3ccno3)c3c(C)cc(C)cc3C)nc(=O)n1CC2 [Compound 62] | – | – | –
1.2 | 0.042 | CCOc1cc2c(cc1OC)-c1cc(N(CCNC(=O)c3ccccn3)c3c(C)cc(C)cc3C)nc(=O)n1CC2 [Compound 63] | – | – | –
8.4 | 0.019 | CCOc1cc2c(cc1OC)-c1cc(N(CCNC(=O)c3c[nH]nn3)c3c(C)cc(C)cc3C)nc(=O)n1CC2 [Compound 64] | – | – | –
10.8 | 0.036 | CCOc1cc2c(cc1OC)-c1cc(N(CCNC(=O)c3nnc(C)o3)c3c(C)cc(C)cc3C)nc(=O)n1CC2 [Compound 65] | – | – | –
– | – | COc1cc2c(cc1OC)-c1cc(=Nc3c(C)cc(C)cc3F)n(CCNC(N)=O)c(=O)n1CC2 [Compound 66] | 268 | 0.64 | –
– | – | COc1cc2c(cc1OC)-c1cc(=Nc3c(C)cc(C)cc3C)n(CCNC(=O)NC3CCNCC3)c(=O)n1CC2 [Compound 67] | 3800 | 5.49 | –
– | – | COc1cc2c(cc1OC)-c1cc(=Nc3c(C)cc(C)cc3C)n(CCNC(=O)N3Cc4cn(C5CC5)nc4C3)c(=O)n1CC2 [Compound 68] | 334 | 1.82 | –
– | – | COc1cc2c(cc1OC)-c1cc(=Nc3c(C)cc(C)cc3C)n(CCNC(=O)OCC(O)CCO)c(=O)n1CC2 (stereo not drawn) [Compound 69] | 6750 | 1.91 | –

IC50 (PDE4B1; [1]) [nM] | IC50 (PDE3A; [2]) [nM] | Structure (SMILES) | IC50 (PDE4B1) [nM] | IC50 (PDE3A) [nM] | also measured
– | – | COc1cc2c(cc1OC)-c1cc(=Nc3c(C)cc(C)cc3C)n(CCNC(=O)N3CCOCC3CO)c(=O)n1CC2 (stereo not drawn) [Compound 70] | 2830 | 1.24 | –
13.2 | 0.057 | CCOc1cc2c(cc1OC)-c1cc(N(CCN3CCN(C(C)=O)CC3)c3c(C)cc(C)cc3C)nc(=O)n1CC2 [Compound 71] | – | – | –
5 | 0.074 | CCOc1cc2c(cc1OC)-c1cc(N(CCN3CCS(=O)(=O)CC3)c3c(C)cc(C)cc3C)nc(=O)n1CC2 [Compound 72] | – | – | –
414 | 0.53 | CCOc1cc2c(cc1OC)-c1cc(=Nc3c(C)cc(C)cc3C)n(CCN3CCS(=O)(=O)CC3)c(=O)n1CC2 [Compound 73] | – | – | –
8.1 | 0.05 | CCOc1cc2c(cc1OC)-c1cc(N(CCN3CC(F)C3)c3c(C)cc(C)cc3C)nc(=O)n1CC2 [Compound 74] | – | – | –
– | – | CCOc1cc2c(cc1OC)-c1cc(N(CCO)c3c(C)cc(C)cc3C)nc(=O)n1CC2 [Compound 75] | – | – | IC50 at 10 min (CYP3A-M; microsomes): 33.2 µM; IC50 (CYP1A2): > 50 µM; IC50 (CYP2C19): 30.6 µM; IC50 (CYP2D6): > 50 µM; IC50 (CYP2C9): 8.31 µM
– | – | CCOc1cc2c(cc1OC)-c1cc(N(CC(=O)O)c3c(C)cc(C)cc3C)nc(=O)n1CC2 [Compound 76] | 172 | 0.1 | –
6730 | 24.7 | CCOc1cc2c(cc1OC)-c1cc(N(c3c(C)cc(C)cc3C)C3CN(C(=O)c4[nH]nnc4C)C3)nc(=O)n1CC2 [Compound 77] | – | – | –
8.9 | 0.027 | CCOc1cc2c(cc1OC)-c1cc(N(CCC(N)C(F)(F)F)c3c(C)cc(C)cc3C)nc(=O)n1CC2 (stereo not drawn) [Compound 78] | – | – | –
2860 | 0.33 | CCOc1cc2c(cc1OC)-c1cc(=Nc3c(C)cc(C)cc3C)n(CCC(N)C(F)(F)F)c(=O)n1CC2 (stereo not drawn) [Compound 79] | – | – | –
– | – | CCOc1cc2c(cc1OC)-c1cc(N(c3c(C)cc(C)cc3C)C(CO)CO)nc(=O)n1CC2 [Compound 80] | 7.4 | 0.0028 | IC50 at 10 min (CYP3A-M; microsomes): 43.5 µM; IC50 (CYP1A2): > 50 µM; IC50 (CYP2C19): 31.5 µM; IC50 (CYP2D6): > 50 µM; IC50 (CYP2C9): 10.1 µM
64.4 | 0.33 | CCOc1cc2c(cc1OC)-c1cc(N(CCCN)c3c(C)cc(C)cc3C)nc(=O)n1CC2 [Compound 81] | – | – | –
– | – | CCOc1cc2c(cc1OC)-c1cc(N(CCC(=O)NCCO)c3c(C)cc(C)cc3C)nc(=O)n1CC2 [Compound 82] | 14.2 | 0.088 | IC50 at 10 min (CYP3A-M; microsomes): 42.8 µM; IC50 (CYP1A2): > 50 µM; IC50 (CYP2C19): > 50 µM; IC50 (CYP2D6): > 50 µM; IC50 (CYP2C9): 9.35 µM
37.3 | 0.043 | CCOc1cc2c(cc1OC)-c1cc(N(CCNC(=O)N3CCOCC3CO)c3c(C)cc(C)cc3C)nc(=O)n1CC2 (stereo not drawn) [Compound 83] | – | – | –
– | – | CCOc1cc2c(cc1OC)-c1cc(=Nc3c(C)cc(C)cc3C)n(CCNC(=O)NOC)c(=O)n1CC2 [Compound 85] | 40.5 | 0.31 | –
– | – | CCOc1cc2c(cc1OC)-c1cc(=Nc3c(C)cc(C)cc3C)n(CCCN)c(=O)n1CC2 [Compound 87] | 359 | 3.02 | –

Structure (SMILES) | IC50 (PDE4B1; [1]) [nM] | IC50 (PDE3A; [2]) [nM] | IC50 (PDE4B1) [nM] | IC50 (PDE3A) [nM] | also measured
CCOc1cc2c(cc1OC)-c1cc(N(CCNC(N)=O)c3c(C)cc(C)cc3C)nc(=O)n1CC2 [Compound 84] | 7.5 | 0.008 | – | – | IC50 at 10 min (CYP3A-M; human liver microsomes): > 50 µM; IC50 (CYP1A2): > 50 µM; IC50 (CYP2C19): > 50 µM; IC50 (CYP2D6): > 50 µM; IC50 (CYP2C9): 4.52 µM
CCOc1cc2c(cc1OC)-c1cc(N(CCNC(=O)NOC)c3c(C)cc(C)cc3C)nc(=O)n1CC2 [Compound 86] | 7.9 | 0.034 | – | – | IC50 at 10 min (CYP3A-M; human liver microsomes): 1.63 µM; IC50 (CYP1A2): > 50 µM; IC50 (CYP2C19): 29.1 µM; IC50 (CYP2D6): 29.7 µM; IC50 (CYP2C9): 3.13 µM
COc1cc2c(cc1OC)-c1c/c(=N\c3c(C)cc(C)cc3C)n(CCNC(N)=O)c(=O)n1CC2 [Ensifentrine, reference compound] | 102 | 0.17 | – | – | IC50 at 10 min (CYP3A-M; human liver microsomes): 8.6 µM; IC50 (CYP1A2): > 50 µM; IC50 (CYP2C19): 23.2 µM; IC50 (CYP2D6): 41.5 µM; IC50 (CYP2C9): 3.52 µM
